Laboratory results published in US10464947B2 (Incyte Corporation, priority 2013, dated 2019).
pIC50: −log10 of the molar value. Structures can show the parent of a compound that is named as a salt. Where two headings read alike, the source gives them in different places.

Experiments:
[1] = target: T1, BRD4-BD1 (Homo sapiens (Human), UniProt O60885); assay: BRD4 AlphaScreen Assay (Example A1), BRD4-BD1; type: binding; conditions: H4Ac4 peptide, 3.8 nM BRD4-BD1, read-out: BRD4 BD-1 enzyme IC50
Experimental: (§1) BRD4-BD1 and BRD4-BD2 assays were conducted in white 384-well polystyrene plate in a final volume of 20 μL for BD1 and 40 μL for BD2. Inhibitors were first serially diluted in DMSO and added to the plate wells before the addition of other reaction components. […] After plate sealing, the plate was incubated in the dark at room temperature for 75 min. before reading on a PHERAstar FS plate reader (BMG Labtech). IC50 determination was performed by fitting the curve of percent control activity versus the log of the inhibitor concentration using the GraphPad Prism 5.0 software.

[2] = target: T2, BRD4-BD2 (Homo sapiens (Human), UniProt O60885); assay: BRD4 AlphaScreen Assay (Example A1), BRD4-BD2; type: binding; conditions: H4Ac4 peptide, 20 nM BRD4-BD2, read-out: BRD4 BD-2 enzyme IC50
Experimental: as §1

[3] = tested on: KMS.12.BM cells; assay: KMS.12.BM Cell Viability Assay (Example B1); type: cell-based, human; conditions: 3 days, Cell Titer-GLO, read-out: KMS cellular IC50
Procedure, shortened: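 KMS.12.BM human myeloma cells, 5000 cells/well in RPMI with 10% FBS, exposed to a compound concentration range for 3 days. Viable cells measured by ATP-based Cell Titer-GLO luminescence after 10 min at room temperature.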

[4] = tested on: C-myc in KMS.12.BM cells; assay: KMS.12.BM C-Myc ELISA Assay (Example C1); type: cell-based; conditions: Homo sapiens, 2 h
Experimental: KMS.12.BM C-Myc ELISA Assay
KMS.12.BM cell line (human myeloma) was purchased from JCRB (Osaka, Japan) and maintained in RPMI with 10% FBS culture medium. To measure the C-myc inhibitory activity of the compounds, the KMS.12.BM cells are plated in the RPMI culture medium at 75000 cells/well/per 200 μL into a 96-well flat bottom polystyrene tissue culture plate (Corning through VWR, NJ), in the presence or absence of a concentration range of test compounds. After 2 h, cells are pelleted and lysed with Cell Extraction Buffer (BioSource, Carlsbad, Calif.) in the presence of protease inhibitors (Life Technologies, Grand Island, N.Y. and Sigma, St Louis, Mo.). Clarified lyses are tested in a C-myc commercial ELISA (Life Technologies, Grand Island, N.Y.).

[5] = target: T1, BRD4-BD1; assay: BRD4 AlphaScreen Assay (Example A2), BRD4-BD1; type: binding; conditions: read-out: BRD4 BD-1 enzyme IC50
Experimental: as §1, with “40” for “20”, “60” for “40”, “components. […] The assays were carried out at room temperature in the assay buffer (50 mM Tris-HCl, pH 7.5, 0.01% Tween-20, 0.01% BSA, 5 mM DTT), containing 50 nM Biotin-labeled tetra-acetylated histone H4 peptide (H4Ac4) and BRD4-BD1 or BRD4-BD2 protein at concentration less than 1 nM.” for “components.”

[6] = target: T2, BRD4-BD2; assay: BRD4 AlphaScreen Assay (Example A2), BRD4-BD2; type: binding; conditions: read-out: BRD4 BD-2 enzyme IC50
Experimental: as §1, with “40” for “20”, “60” for “40”, “components. […] The assays were carried out at room temperature in the assay buffer (50 mM Tris-HCl, pH 7.5, 0.01% Tween-20, 0.01% BSA, 5 mM DTT), containing 50 nM Biotin-labeled tetra-acetylated histone H4 peptide (H4Ac4) and BRD4-BD1 or BRD4-BD2 protein at concentration less than 1 nM.” for “components.”

Cc1noc(C)c1-c1ccc2[nH]c(=O)n3c2c1OCC3c1ccccc1 (single isomer, unassigned) [Example 1A, 7-(3,5-Dimethylisoxazol-4-yl)-4-phenyl-4,5-dihydroimidazo[1,5,4-de][1,4]benzoxazin-2(1H)-one]
pIC50 [1]: ≥ 7.00 | pIC50 [2]: ≥ 7.00 | pIC50 [3]: > 6.00 | pIC50 [4]: > 6.00

Cc1noc(C)c1-c1ccc2[nH]c(=O)n3c2c1OCC3c1ccccc1 (single isomer, unassigned) [Example 1B, 7-(3,5-Dimethylisoxazol-4-yl)-4-phenyl-4,5-dihydroimidazo[1,5,4-de][1,4]benzoxazin-2(1H)-one]
pIC50 [1]: 6.00 to 7.00 | pIC50 [2]: 6.00 to 7.00

Cc1noc(C)c1-c1ccc2[nH]c(=O)n3c2c1OCC3c1cccnc1C(=O)NCCO (single isomer, unassigned) [Example 135, 3-[7-(3,5-Dimethylisoxazol-4-yl)-2-oxo-1,2,4,5-tetrahydroimidazo[1,5,4-de][1,4]benzoxazin-4-yl]-N-(2-hydroxyethyl)pyridine-2-carboxamide]
pIC50 [5]: > 7.00 | pIC50 [6]: > 7.00 | pIC50 ([3]; Homo sapiens, 72 h): > 6.00 | pIC50 [4]: > 6.00

Cc1noc(C)c1-c1ccc2[nH]c(=O)n3c2c1OCC3c1cccnc1C(=O)NCC(F)(F)F (single isomer, unassigned) [Example 136, 3-[7-(3,5-dimethylisoxazol-4-yl)-2-oxo-1,2,4,5-tetrahydroimidazo[1,5,4-de][1,4]benzoxazin-4-yl]-N-(2,2,2-trifluoroethyl)pyridine-2-carboxamide]
pIC50 [5]: > 7.00 | pIC50 [6]: > 7.00 | pIC50 ([3]; Homo sapiens, 72 h): > 6.00 | pIC50 [4]: > 6.00

CC(=O)N1CC=C(c2nc3ccc(-c4c(C)noc4C)c4c3n2[C@@H](c2ccccn2)CO4)CC1 [Example 110, (4S)-2-(1-acetyl-1,2,3,6-tetrahydropyridin-4-yl)-7-(3,5-dimethylisoxazol-4-yl)-4-pyridin-2-yl-4,5-dihydroimidazo[1,5,4-de][1,4]benzoxazine]
pIC50 ([3]; Homo sapiens, 72 h): > 6.00 | pIC50 [4]: > 6.00

Cc1noc(C)c1-c1ccc2[nH]c(=O)n3c2c1OCC3c1cccnc1C(N)=O (centres unmarked) [Example 127, 3-[7-(3,5-Dimethylisoxazol-4-yl)-2-oxo-1,2,4,5-tetrahydroimidazo[1,5,4-de][1,4]benzoxazin-4-yl]pyridine-2-carboxamide trifluoroacetate]
pIC50 ([3]; Homo sapiens, 72 h): > 6.00 | pIC50 [4]: > 6.00

CNC(=O)c1ncccc1C1COc2c(-c3c(C)noc3C)ccc3[nH]c(=O)n1c23 (centres unmarked) [Example 128, 3-[7-(3,5-Dimethylisoxazol-4-yl)-2-oxo-1,2,4,5-tetrahydroimidazo[1,5,4-de][1,4]benzoxazin-4-yl]-N-methylpyridine-2-carboxamide]
pIC50 ([3]; Homo sapiens, 72 h): > 6.00 | pIC50 [4]: > 6.00

Cc1noc(C)c1-c1ccc2[nH]c(=O)n3c2c1OCC3c1cccnc1CN (centres unmarked) [Example 130, 4-[2-(Aminomethyl)pyridin-3-yl]-7-(3,5-dimethylisoxazol-4-yl)-4,5-dihydroimidazo[1,5,4-de][1,4]benzoxazin-2(1H)-one bis(trifluoroacetate)]
pIC50 ([3]; Homo sapiens, 72 h): > 6.00 | pIC50 [4]: > 6.00

CC(=O)NCc1cc(-c2c(C)noc2C)c2c3c1[nH]c(=O)n3[C@@H](c1ccccn1)CO2 [Example 138, N-{[(4S)-7-(3,5-Dimethylisoxazol-4-yl)-2-oxo-4-pyridin-2-yl-1,2,4,5-tetrahydroimidazo[1,5,4-de][1,4]benzoxazin-9-yl]methyl}acetamide trifluoroacetate]
pIC50 ([3]; Homo sapiens, 72 h): > 6.00 | pIC50 [4]: > 6.00

Cc1noc(C)c1-c1cc(CNC(=O)Cc2ccccc2)c2[nH]c(=O)n3c2c1OC[C@@H]3c1ccccn1 [Example 139, N-{[(4S)-7-(3,5-Dimethylisoxazol-4-yl)-2-oxo-4-pyridin-2-yl-1,2,4,5-tetrahydroimidazo[1,5,4-de][1,4]benzoxazin-9-yl]methyl}-2-phenylacetamide]
pIC50 ([3]; Homo sapiens, 72 h): > 6.00 | pIC50 [4]: 5.00 to 6.00

COCC(=O)NCc1cc(-c2c(C)noc2C)c2c3c1[nH]c(=O)n3[C@@H](c1ccccn1)CO2 [Example 140, N-{[(4S)-7-(3,5-Dimethylisoxazol-4-yl)-2-oxo-4-pyridin-2-yl-1,2,4,5-tetrahydroimidazo[1,5,4-de][1,4]benzoxazin-9-yl]methyl}-2-methoxyacetamide]
pIC50 ([3]; Homo sapiens, 72 h): > 6.00 | pIC50 [4]: > 6.00

Cc1noc(C)c1-c1cc(CNS(C)(=O)=O)c2[nH]c(=O)n3c2c1OC[C@@H]3c1ccccn1 [Example 141, N-{[(4S)-7-(3,5-Dimethylisoxazol-4-yl)-2-oxo-4-pyridin-2-yl-1,2,4,5-tetrahydroimidazo[1,5,4-de][1,4]benzoxazin-9-yl]methyl}methanesulfonamide]
pIC50 ([3]; Homo sapiens, 72 h): > 6.00 | pIC50 [4]: > 6.00

Cc1noc(C)c1-c1cc(CNC(=O)NC(C)C)c2[nH]c(=O)n3c2c1OC[C@@H]3c1ccccn1 [Example 142, N-{[(4S)-7-(3,5-Dimethylisoxazol-4-yl)-2-oxo-4-pyridin-2-yl-1,2,4,5-tetrahydroimidazo[1,5,4-de][1,4]benzoxazin-9-yl]methyl}-N′-isopropylurea]
pIC50 ([3]; Homo sapiens, KMS-12-BM, 72 h): > 6.00 | pIC50 [4]: > 6.00
